The values that follow come from ChEMBL document CHEMBL1201862, “PubChem BioAssay data set” (2004).

Data set [1] deals with T1, Heat shock factor protein 1 (Mus musculus, UniProt P38532).
T1 sequence (P38532 whole entry): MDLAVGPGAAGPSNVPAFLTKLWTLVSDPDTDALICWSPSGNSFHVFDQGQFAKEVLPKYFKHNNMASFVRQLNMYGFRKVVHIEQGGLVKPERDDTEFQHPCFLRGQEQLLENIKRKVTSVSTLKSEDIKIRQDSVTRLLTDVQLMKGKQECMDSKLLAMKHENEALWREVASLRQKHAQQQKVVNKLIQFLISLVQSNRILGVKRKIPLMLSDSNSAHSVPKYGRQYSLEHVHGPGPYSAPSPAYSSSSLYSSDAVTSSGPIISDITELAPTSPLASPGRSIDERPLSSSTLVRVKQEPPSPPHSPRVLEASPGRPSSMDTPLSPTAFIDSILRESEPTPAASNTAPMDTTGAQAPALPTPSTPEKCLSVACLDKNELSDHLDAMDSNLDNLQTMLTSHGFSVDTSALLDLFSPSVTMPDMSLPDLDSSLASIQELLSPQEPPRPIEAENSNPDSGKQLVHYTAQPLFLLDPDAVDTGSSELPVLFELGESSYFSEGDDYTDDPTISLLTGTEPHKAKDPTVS
In words: inhibition of MG132-induced HSE-luciferase signal, confirmation, cell-based, NIH3T3, luminescence, dose retest (AID 2382).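 Further: NIH3T3 fibroblasts with HSF1-driven luciferase reporter stressed by proteasome inhibitor MG132; luminescence from HSF1-driven luciferase expression after 8 hours of MG132 stress.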 It counts as functional.

A further data set deals with Cytochrome P450 2C9 (Homo sapiens, UniProt P11712).
Cytochrome P450 2C9, sequence (P11712 whole entry): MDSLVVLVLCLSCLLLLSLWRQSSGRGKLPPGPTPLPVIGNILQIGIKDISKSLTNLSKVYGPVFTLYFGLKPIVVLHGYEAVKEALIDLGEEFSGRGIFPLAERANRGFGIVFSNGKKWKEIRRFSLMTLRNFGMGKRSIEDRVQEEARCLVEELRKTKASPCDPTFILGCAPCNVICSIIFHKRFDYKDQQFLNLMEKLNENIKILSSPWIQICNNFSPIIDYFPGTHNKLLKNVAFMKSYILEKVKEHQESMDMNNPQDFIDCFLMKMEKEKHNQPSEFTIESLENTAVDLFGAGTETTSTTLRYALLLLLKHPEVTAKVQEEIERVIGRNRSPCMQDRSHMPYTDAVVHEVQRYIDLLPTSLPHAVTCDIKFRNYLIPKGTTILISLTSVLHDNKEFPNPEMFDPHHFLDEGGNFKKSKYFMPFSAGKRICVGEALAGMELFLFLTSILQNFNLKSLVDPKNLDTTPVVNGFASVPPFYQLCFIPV
The nature of data set [2]: cytotoxicity toward NIH3T3 fibroblasts, dose response, counter-screen, cell-based, ATP luminescence, mouse fibroblasts (AID 2010).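 Further: cells exposed to compound for about 90 hours before reading.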 The format is functional. On the technique in general: The purpose of a counterscreen is to sort out artefacts and off-target activity.
Data set [3] in a line: inhibitors of intracellular T. cruzi replication, confirmation, NIH3T3 host cells, beta-gal luminescence (AID 2044).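 Further: intracellular parasites grown in NIH/3T3 mouse fibroblasts as host cells; luminescent beta-galactosidase reporter signal from transgenic T. cruzi replicating inside host cells; inhibitors lower the luminescence signal.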 It counts as functional, cell-based.
The target in a further data set is Cytochrome P450 2C19 (Homo sapiens, UniProt P33261). In words: Cytochrome panel assay with activity outcomes. Panel member name: p450-cyp2c19 Compounds with AC50 equal or less than 10 uM are considered active. The format is functional.
Cytochrome P450 2C19, sequence (P33261 whole entry): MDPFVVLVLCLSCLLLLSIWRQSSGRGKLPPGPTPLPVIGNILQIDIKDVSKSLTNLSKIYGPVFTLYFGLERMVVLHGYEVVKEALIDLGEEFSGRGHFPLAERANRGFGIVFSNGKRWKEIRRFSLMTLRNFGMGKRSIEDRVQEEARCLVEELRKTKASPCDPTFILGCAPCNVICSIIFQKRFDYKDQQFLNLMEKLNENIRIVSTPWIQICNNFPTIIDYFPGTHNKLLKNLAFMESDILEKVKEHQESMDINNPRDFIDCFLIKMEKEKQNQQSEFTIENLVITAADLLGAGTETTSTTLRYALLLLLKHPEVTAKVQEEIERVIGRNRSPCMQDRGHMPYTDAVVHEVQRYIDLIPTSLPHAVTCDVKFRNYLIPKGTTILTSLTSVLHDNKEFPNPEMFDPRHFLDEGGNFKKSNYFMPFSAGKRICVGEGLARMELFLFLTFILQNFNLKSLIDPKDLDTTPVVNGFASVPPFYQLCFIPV
Data set [4] has as its system Streptococcus sp. 'group A'. In words: growth inhibition of control SK(-) GAS strain, dose response, counter-screen for streptokinase expression inhibitor project, luminescence, kanamycin, BacTiterGlo, confirmation (AID 1900). The format is functional, organism-based.
A further data set has as its target Cytochrome P450 2D6 (Homo sapiens, UniProt P10635).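 Further: CYP2D6 member of a cytochrome P450 panel assay.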
The subject of a further data set is Streptococcus. Briefly: Group A Streptococcus viability loss, dose response, counter-screen for streptokinase expression inhibitor project, luminescence, BacTiterGlo (AID 1915).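 Further: potency for reduction of bacterial viability or growth.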 It counts as functional, organism-based.

Values joined by “and” are separate entries in the source; they are usually repeats but may differ in a detail not shown here. Equal values may be shown once. Active and inactive are the calls of the source.

Cytochrome P450 2D6, sequence (P10635 whole entry): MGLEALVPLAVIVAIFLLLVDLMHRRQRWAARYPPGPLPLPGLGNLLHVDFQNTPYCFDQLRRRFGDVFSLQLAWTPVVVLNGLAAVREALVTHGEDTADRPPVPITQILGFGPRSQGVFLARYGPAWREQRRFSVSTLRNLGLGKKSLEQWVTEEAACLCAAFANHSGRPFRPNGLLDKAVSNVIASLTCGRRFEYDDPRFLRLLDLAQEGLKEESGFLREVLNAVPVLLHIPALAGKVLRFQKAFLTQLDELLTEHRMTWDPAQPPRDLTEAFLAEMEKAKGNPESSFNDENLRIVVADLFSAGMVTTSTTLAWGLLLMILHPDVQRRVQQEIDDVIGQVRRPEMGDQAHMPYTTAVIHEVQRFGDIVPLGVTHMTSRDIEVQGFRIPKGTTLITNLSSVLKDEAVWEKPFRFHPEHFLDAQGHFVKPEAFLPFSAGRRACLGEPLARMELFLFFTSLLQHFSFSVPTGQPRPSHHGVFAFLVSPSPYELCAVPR

For orientation: EC50 means the concentration needed to bring the measured effect to its halfway point. Take `Cc1ccc(OCC(O)CN2C(=O)NC(C)(C)C2=O)cc1C` (centres undefined): the EC50 in data set [1] is > 195 µM (not active).

Usually AC50 stands for the midpoint of the concentration-response curve, whichever way the signal moves. Turning to `Cc1ccnc(NCn2nnc3ccccc32)c1`, the concentration at half-maximal activity (AC50) on Cytochrome P450 2C9 was 22.4 µM (inconclusive).

With `CC(C)C(=O)N1CCN(c2cc(N3CCN(C)CC3)c(F)cc2[N+](=O)[O-])CC1`, the EC50 is > 60 µM (not active) in data set [2] and 0.625 µM (active) in data set [3]. As to `CN1C(=O)CC(NNC(=O)c2ccccc2)C1=O` (centres undefined), on Cytochrome P450 2C19, the AC50 result is “inconclusive”. With `O=C(NC(=S)N(CCCCO)C1CCCCC1)c1sc2ccccc2c1Cl`, the EC50 in data set [4] is 0.891 µM (active); in the data set with Streptococcus, 7.75 µM (active). Further, the AC50 at Cytochrome P450 2D6 was 22.4 µM (inconclusive). `Cc1noc(C)c1-c1cncnc1N1CCN(C)CC1`: the AC50 at Cytochrome P450 2D6 was 39.8 µM (inconclusive); on Cytochrome P450 2C19, “inconclusive”. For `CCOC(=O)N1CCC(NC(=O)CS(=O)(=O)Cc2nc(-c3cccc(OC)c3)oc2C)CC1`, at Cytochrome P450 2C19 (read-out: AC50), the AC50 is 39.8 µM (inconclusive).

On to `Cc1c(Cl)c([N+](=O)[O-])nn1CC(=O)Nc1c(C)n(C)n(-c2ccccc2)c1=O`, for which the AC50 on Cytochrome P450 2C9 is 14.1 µM (inconclusive); at Cytochrome P450 2C19 (read-out: AC50) it was 1.78 µM (inconclusive). As for `CC(C)c1ccc(NC(=O)c2cc3c(=O)n(C)c4ccccc4c3n2C)cc1`, the EC50 was 16.2 µM (active) in data set [2] and 1.12 µM (active) in data set [3]. Consider `COc1ccc(-n2c(-c3ccc(F)cc3)cnc2SCC(=O)NCc2ccco2)cc1`, for which the EC50 in data set [1] is listed as > 195 µM (not active). Consider `O=[N+]([O-])c1cccc(/C=N\Nc2ccc3ccccc3n2)c1O`, for which the AC50 on Cytochrome P450 2C9 is 1 µM (inconclusive); at Cytochrome P450 2C19 (read-out: AC50), 6.31 µM (inconclusive).

As to `COC(=O)c1ccccc1NC(=O)C1CCN(C(=O)c2ccc(OC)cc2)CC1`, on Cytochrome P450 2C9, the AC50 was 8.91 µM (inconclusive). Take `Cc1c(C(=O)Nc2nccs2)sc2nc(-c3cccs3)cc(C(F)(F)F)c12`: the half-maximal activity concentration (AC50) is 3.98 µM (inconclusive) on Cytochrome P450 2D6 and 2.82 µM (inconclusive) on Cytochrome P450 2C19 (read-out: AC50). As to `Cc1ccc(/C=C/C(=O)Nc2ccc(O)c3c(=O)cc(-c4ccccc4Cl)oc23)cc1`, in data set [1], the EC50 was > 195 µM (not active). Regarding `C=CC[C@@H]1C=C[C@H](O/N=C2\c3cc(OC)ccc3O[C@H](c3cccc(OC)c3)[C@H]2O)[C@H](CO)O1`, the AC50 at Cytochrome P450 2D6 is 5.01 µM (inconclusive); at Cytochrome P450 2C19 (read-out: AC50) it was 3.16 µM (inconclusive). Consider `C[N+]12CCC(CC1)[C@@H](OC(=O)C(O)(c1ccccc1)c1ccccc1)C2`, for which the AC50 at Cytochrome P450 2D6 is 12.6 µM (inconclusive). Consider `CCCCN(C(=O)COc1ccc(C)cc1OC)c1c(N)n(CCC)c(=O)[nH]c1=O`, for which the EC50 in data set [1] was > 195 µM (not active). Turning to `CN(CC(=O)NCc1cccnc1)S(=O)(=O)c1ccc2c(c1)c(=O)n(C)c(=O)n2C`, in data set [1], the EC50 was > 195 µM (not active). With `COc1cccc(-c2ccc3ncnc(NCc4cnc(C)cn4)c3c2)c1`, on Cytochrome P450 2D6, the half-maximal activity concentration (AC50) is 31.6 µM (inconclusive). `CC(=O)N1CCC2(CC1)CCN(c1ccc(-c3ccccc3)cc1)CC2`: on Cytochrome P450 2C9, the AC50 was 25.1 µM (inconclusive).

Turning to `COc1ccccc1CNc1ccnc(-c2ccccc2C(F)(F)F)n1`, the AC50 on Cytochrome P450 2C9 was 0.0158 µM (inconclusive). As to `CCN(c1ccccc1)S(=O)(=O)c1ccc(Cl)c(C(=O)N(CC2CCCO2)C2CCS(=O)(=O)C2)c1` (centres undefined), in data set [1], the EC50 is listed as > 195 µM (not active). With `CCOc1ccc(-c2cc(C(=O)OC)nc3c2c(=O)n(C)c(=O)n3C)cc1`, the EC50 is 0.063 µM (active) in data set [4] and 4.33 µM (active) in the data set on Streptococcus. For `COc1ccc(CCNCC(O)COc2cccc(C(C)=O)c2)cc1OC` (centres undefined), the EC50 in data set [2] was > 60 µM (not active); in data set [3], 0.225 µM (active). For `O=C1N=C(N2CCOCC2)S/C1=C\C=C/c1ccccc1`, the AC50 on Cytochrome P450 2C19 (read-out: AC50) is 35.5 µM (inconclusive). In the case of `Cc1cc(C(F)(F)F)n2nc(-c3cnn(C)c3C(F)(F)F)c(Cl)c2n1`, on Cytochrome P450 2C9, the AC50 is 20 µM (inconclusive). `O=C(CS(=O)(=O)Cc1ccccc1)NCC1CCCO1` (centres undefined): in data set [1], the EC50 is > 195 µM (not active). For the compound `O=C(Cn1cnc2cc([N+](=O)[O-])ccc2c1=O)NC(=O)NCc1ccccc1`, the EC50 in data set [2] is > 60 µM (not active); in data set [3], 0.223 µM (active). Consider `Cc1ccccc1OCC(=O)OCC(=O)c1ccc(-c2ccccc2)cc1`, for which the EC50 in data set [1] is listed as > 195 µM (not active). With `FC(F)(F)c1cccc(NC(S)=NN=C(S)Nc2ccc(Cl)cc2)c1`, the EC50 was 3.28 µM (active) in data set [4] and 5.47 µM (active) in the data set with Streptococcus.

With `CC1(C)Cc2nc3[nH]c(=S)n(-c4ccccc4)c(=O)c3cc2CO1`, in data set [1], the EC50 was > 195 µM (not active). Consider `COc1ccc(CCNC(=O)c2cc3c(=O)n4ccccc4nc3n(C3CCCCC3)c2=N)cc1`, for which the figures for the EC50 in data set [2] and in data set [3] were > 60 µM (not active) and 2.17 µM (active), respectively. In the case of `COC(=O)c1cc(NC(=O)/C=C/c2ccc3c(c2)OCO3)cc(C(=O)OC)c1`, on Cytochrome P450 2C9, the AC50 is 0.126 µM (inconclusive). As for `Cc1cc(N2CCOCC2)nc(SCc2ccc(Cl)cc2Cl)n1`, the AC50 on Cytochrome P450 2D6 is 15.8 µM (inconclusive). On the same count and under the same terms, the result for `CCC(C(=O)NC(C)(C)C)N(C(=O)Cn1nnc(-c2cccs2)n1)c1cnc2ccccc2c1` (centres undefined) reads 28.2 µM (inconclusive). For the compound `COc1cccc(C(=O)CC(=O)C(=O)Nc2cc(OC)c(OC)c(OC)c2)c1`, the EC50 in data set [1] is reported as > 195 µM (not active). Take `CC1CC(OCC(O)CN2CCN(Cc3ccccc3)CC2)CC(C)(C)C1` (centres undefined): the AC50 at Cytochrome P450 2C9 was 0.0251 µM (inconclusive). Turning to `CCC(C)c1ccc(NC(=O)C2CC2)cc1` (centres undefined), the EC50 in data set [1] is reported as > 195 µM (not active). Regarding `O=C(c1cnccn1)N1CCC2(CC1)CN(Cc1ccccc1)C2`, the AC50 at Cytochrome P450 2C9 was 31.6 µM (inconclusive); on Cytochrome P450 2C19 (read-out: AC50), 15.8 µM (inconclusive). Take `COc1ccc(C(=O)Nc2ccc(S(=O)(=O)N3CCCC3)cc2)c(OC)c1`: the EC50 was > 60 µM (not active) in data set [2] and 11.1 µM (active) in data set [3].

In the case of `Cc1ccc(N(Cc2ccco2)C(=O)c2ccc(N3CCCCC3)c([N+](=O)[O-])c2)cc1`, the EC50 is > 60 µM (not active) in data set [2] and 1.27 µM (active) in data set [3]. `O=[N+]([O-])c1nn(-c2ccccc2)[n+]([O-])c1N1CCN(c2ccccc2)CC1`: the EC50 was > 60 µM (not active) in data set [2] and 0.483 µM (active) in data set [3].

Take `Cc1ccc(C)c(NC(=O)C2C3CCCC2C3c2ccccc2)c1` (centres undefined): the AC50 at Cytochrome P450 2C9 is 3.16 µM (inconclusive). Turning to `Nc1ccccc1Nc1cc(-c2ccccc2)nn1-c1ccccc1`, the EC50 in data set [2] is > 60 µM (inconclusive); in data set [3], 7.72 µM (active).

Turning to `Cc1nn(-c2ccccc2)c2c1C(=O)N(Cc1ccccc1)C(=O)C(C)(C)C2`, the AC50 at Cytochrome P450 2D6 is 0.891 µM (inconclusive).

As for `Clc1ccc(SCCN2CCNCC2)cc1`, the EC50 in data set [2] is 9.8 µM (active); in data set [3], 0.511 µM (active).

With `O=c1c2ccccc2ncn1-c1ccc([N+](=O)[O-])cc1[N+](=O)[O-]`, the figures for the EC50 in data set [2] and in data set [3] were > 60 µM (not active) and 0.524 µM (active), respectively. On to `Cc1cc(C)c2nc(O)c(C(c3nnnn3CC3CCCO3)N3CCC(C)CC3)cc2c1` (centres undefined), for which, in data set [1], the EC50 is recorded as > 195 µM (not active). The same measure, in the same setting: the result for `CC(C)(C)OC(=O)N[C@@H](Cc1ccccc1)C(=O)NC[C@H]1CC[C@H](C(=O)N[C@@H](CC(=O)O)C(=O)O)CC1` reads > 195 µM (not active). `CSc1nc(C)c(CCOC(=O)c2ccccc2)c(O)n1`: the AC50 on Cytochrome P450 2C9 was 20 µM (inconclusive). On the same count and under the same terms, the result for `CCCNC(=O)c1c(C)cc(=O)oc1C` reads 0.112 µM (inconclusive). The same measure, in the same setting: the result for `Cc1cc(C)cc(NC(=O)N2CCCC2C(=O)Nc2ccc(-n3cnnn3)c(C)c2)c1` (centres undefined) reads 20 µM (inconclusive). As for `C=CCN1C(=O)C(Cc2ccc(OC)cc2)S/C1=N/N=C/c1ccco1` (centres undefined), the EC50 in data set [1] is > 195 µM (not active). Consider `C/C(=N\Nc1nc2ccccc2[nH]1)c1ccc2c(c1)OCCO2`, for which the EC50 is > 60 µM (not active) in data set [2] and 1.89 µM (active) in data set [3].

Take `N=C(N)N/N=C/c1cccc(Cl)c1Cl`: the EC50 in data set [2] was > 60 µM (not active); in data set [3] it was 0.435 µM (active). On the same counts, the results for `CCOC(=O)c1cc2c(=O)n3ccccc3nc2n(C(C)C)/c1=N/C(=O)c1c(-c2ccccc2Cl)noc1C` are > 30 µM (not active) and 2.4 µM (active). As for `Cc1nn2c(=O)c(Cl)c(C)[nH]c2c1-c1ccccc1`, the EC50 in data set [1] is on record as > 195 µM (not active).

As to `Cc1c2c(n3c(nc4ccccc43)c1C#N)N(CCN(C)C)CC2`, the EC50 was 20.6 µM (active) in data set [2] and 0.117 µM (active) in data set [3]. Turning to `Cc1cccc(C)c1OC[C@H](C)N` [(S)-MEXILETINE], on Cytochrome P450 2D6, the half-maximal activity concentration (AC50) is 7.94 µM (inconclusive) and 39.8 µM (inconclusive).
